test system: ABUTH: velvetleaf (Abutilon theophrasti); test: Post-Emergent Test II herbicidal activity; format: in vivo; conditions: post-emergence, 336 h, 35 g ai/ha, 14 days, read-out: Visual Growth Reduction (%) 14 Days After Application ABUTH
Experimental: (§1) Post-Emergent Test II: Seeds or nutlets of the desired test plant species were planted in Sun Gro Metro-Mix® 360 planting mixture, which typically has a pH of 6.0 to 6.8 and an organic matter content of about 30 percent, in plastic pots with a surface area of 64 square centimeters. When required to ensure good germination and healthy plants, a fungicide treatment and/or other chemical or physical treatment was applied. The plants were grown for 7-21 d in a greenhouse with an approximate 15 h photoperiod which was maintained at about 23-29° C. during the day and 22-28° C. during the night. Nutrients and water were added on a regular basis and supplemental lighting was provided with overhead metal halide 1000-Watt lamps as necessary. The plants were employed for testing when they reached the first or second true leaf stage.
(§2) A weighed amount, determined by the highest rate to be tested, of each test compound was placed in a 25 mL glass vial and was dissolved in 4 mL of a 97:3 v/v mixture of acetone and DMSO to obtain concentrated stock solutions. […] The concentrated stock solutions obtained were diluted with 20 mL of an aqueous mixture containing acetone, water, isopropyl alcohol, DMSO, Atplus 411F crop oil concentrate, and Triton® X-155 surfactant in a 48.5:39:10:1.5:1.0:0.02 v/v ratio to obtain spray solutions containing the highest application rates. Additional application rates were obtained by serial dilution of 12 mL of the high rate solution into a solution containing 2 mL of 97:3 v/v mixture of acetone and DMSO and 10 mL of an aqueous mixture containing acetone, water, isopropyl alcohol, DMSO, Atplus 411F crop oil concentrate, and Triton X®-155 surfactant in a 48.5:39:10:1.5:1.0:0.02 v/v ratio to obtain ½×, ¼×, ⅛× and 1/16× rates of the high rate. Compound requirements are based upon a 12 mL application volume at a rate of 187 liters per hectare (L/ha). Formulated compounds were applied to the plant material with an overhead Mandel track sprayer equipped with 8002E nozzles calibrated to deliver 187 L/ha over an application area of 0.503 square meters at a spray height of 18 inches […] above the average plant canopy height. Control plants were sprayed in the same manner with the solvent blank.
(§3) The treated plants and control plants were placed in a greenhouse as described above and watered by subirrigation to prevent wash-off of the test compounds. After 14 d, the condition of the test plants as compared with that of the untreated plants was determined visually and scored on a scale of 0 to 100 percent where 0 corresponds to no injury and 100 corresponds to complete kill.

| Structure (SMILES) | pest or weed control at 35 g/ha [%] |
| --- | --- |
| Nc1c(F)c(-c2ccc3nsnc3c2)nc(C(=O)O)c1Cl [Compound 12] | 85 to 94 |

same assay, conditions: post-emergence, 336 h, 70 g ai/ha, 14 days, read-out: Visual Growth Reduction (%) 14 Days After Application ABUTH

| Structure (SMILES) | pest or weed control at 70 g/ha [%] |
| --- | --- |
| Nc1c(F)c(-c2ccc3nsnc3c2)nc(C(=O)O)c1Cl [Compound 12] | 85 to 94 |

same assay, conditions: post-emergence, 336 h, 140 g ai/ha, 14 days, read-out: Visual Growth Reduction (%) 14 Days After Application ABUTH

| Structure (SMILES) | pest or weed control at 140 g/ha [%] |
| --- | --- |
| Nc1c(F)c(-c2ccc3nsnc3c2)nc(C(=O)O)c1Cl [Compound 12] | 85 to 94 |

test system: AMARE: redroot pigweed (Amaranthus retroflexus); test: Post-Emergent Test II herbicidal activity; format: in vivo; conditions: post-emergence, 336 h, 35 g ai/ha, 14 days, read-out: Visual Growth Reduction (%) 14 Days After Application AMARE
Experimental: as §1, §2, §3

| Structure (SMILES) | pest or weed control at 35 g/ha [%] |
| --- | --- |
| Nc1c(F)c(-c2ccc3nsnc3c2)nc(C(=O)O)c1Cl [Compound 12] | 95 to 100 |

same assay, conditions: post-emergence, 336 h, 70 g ai/ha, 14 days, read-out: Visual Growth Reduction (%) 14 Days After Application AMARE

| Structure (SMILES) | pest or weed control at 70 g/ha [%] |
| --- | --- |
| Nc1c(F)c(-c2ccc3nsnc3c2)nc(C(=O)O)c1Cl [Compound 12] | 95 to 100 |

same assay, conditions: post-emergence, 336 h, 140 g ai/ha, 14 days, read-out: Visual Growth Reduction (%) 14 Days After Application AMARE

| Structure (SMILES) | pest or weed control at 140 g/ha [%] |
| --- | --- |
| Nc1c(F)c(-c2ccc3nsnc3c2)nc(C(=O)O)c1Cl [Compound 12] | 95 to 100 |

test system: BRSNN: oilseed rape, canola (Brassica napus); test: Post-Emergent Test II herbicidal activity; format: in vivo; conditions: post-emergence, 336 h, 35 g ai/ha, 14 days, read-out: Visual Growth Reduction (%) 14 Days After Application BRSNN
Experimental: as §1, §2, §3

| Structure (SMILES) | pest or weed control at 35 g/ha [%] |
| --- | --- |
| Nc1c(F)c(-c2ccc3nsnc3c2)nc(C(=O)O)c1Cl [Compound 12] | 75 to 84 |

same assay, conditions: post-emergence, 336 h, 70 g ai/ha, 14 days, read-out: Visual Growth Reduction (%) 14 Days After Application BRSNN

| Structure (SMILES) | pest or weed control at 70 g/ha [%] |
| --- | --- |
| Nc1c(F)c(-c2ccc3nsnc3c2)nc(C(=O)O)c1Cl [Compound 12] | 75 to 84 |

same assay, conditions: post-emergence, 336 h, 140 g ai/ha, 14 days, read-out: Visual Growth Reduction (%) 14 Days After Application BRSNN

| Structure (SMILES) | pest or weed control at 140 g/ha [%] |
| --- | --- |
| Nc1c(F)c(-c2ccc3nsnc3c2)nc(C(=O)O)c1Cl [Compound 12] | 75 to 84 |

test system: CHEAL: lambsquarters (Chenopodium album); test: Post-Emergent Test II herbicidal activity; format: in vivo; conditions: post-emergence, 336 h, 35 g ai/ha, 14 days, read-out: Visual Growth Reduction (%) 14 Days After Application CHEAL
Experimental: as §1, §2, §3

| Structure (SMILES) | pest or weed control at 35 g/ha [%] |
| --- | --- |
| Nc1c(F)c(-c2ccc3nsnc3c2)nc(C(=O)O)c1Cl [Compound 12] | 85 to 94 |

same assay, conditions: post-emergence, 336 h, 70 g ai/ha, 14 days, read-out: Visual Growth Reduction (%) 14 Days After Application CHEAL

| Structure (SMILES) | pest or weed control at 70 g/ha [%] |
| --- | --- |
| Nc1c(F)c(-c2ccc3nsnc3c2)nc(C(=O)O)c1Cl [Compound 12] | 95 to 100 |

same assay, conditions: post-emergence, 336 h, 140 g ai/ha, 14 days, read-out: Visual Growth Reduction (%) 14 Days After Application CHEAL

| Structure (SMILES) | pest or weed control at 140 g/ha [%] |
| --- | --- |
| Nc1c(F)c(-c2ccc3nsnc3c2)nc(C(=O)O)c1Cl [Compound 12] | 95 to 100 |

test system: CYPES: yellow nutsedge (Cyperus esculentus); test: Post-Emergent Test II herbicidal activity; format: in vivo; conditions: post-emergence, 336 h, 35 g ai/ha, 14 days, read-out: Visual Growth Reduction (%) 14 Days After Application CYPES
Experimental: as §1, §2, §3

| Structure (SMILES) | pest or weed control at 35 g/ha [%] |
| --- | --- |
| Nc1c(F)c(-c2ccc3nsnc3c2)nc(C(=O)O)c1Cl [Compound 12] | 0 to 29 |

same assay, conditions: post-emergence, 336 h, 70 g ai/ha, 14 days, read-out: Visual Growth Reduction (%) 14 Days After Application CYPES

| Structure (SMILES) | pest or weed control at 70 g/ha [%] |
| --- | --- |
| Nc1c(F)c(-c2ccc3nsnc3c2)nc(C(=O)O)c1Cl [Compound 12] | 0 to 29 |

same assay, conditions: post-emergence, 336 h, 140 g ai/ha, 14 days, read-out: Visual Growth Reduction (%) 14 Days After Application CYPES

| Structure (SMILES) | pest or weed control at 140 g/ha [%] |
| --- | --- |
| Nc1c(F)c(-c2ccc3nsnc3c2)nc(C(=O)O)c1Cl [Compound 12] | 0 to 29 |

test system: ECHCG: barnyardgrass (Echinochloa crus-galli); test: Post-Emergent Test II herbicidal activity; format: in vivo; conditions: post-emergence, 336 h, 35 g ai/ha, 14 days, read-out: Visual Growth Reduction (%) 14 Days After Application ECHCG
Experimental: as §1, §2, §3

| Structure (SMILES) | pest or weed control at 35 g/ha [%] |
| --- | --- |
| Nc1c(F)c(-c2ccc3nsnc3c2)nc(C(=O)O)c1Cl [Compound 12] | 75 to 84 |

same assay, conditions: post-emergence, 336 h, 70 g ai/ha, 14 days, read-out: Visual Growth Reduction (%) 14 Days After Application ECHCG

| Structure (SMILES) | pest or weed control at 70 g/ha [%] |
| --- | --- |
| Nc1c(F)c(-c2ccc3nsnc3c2)nc(C(=O)O)c1Cl [Compound 12] | 75 to 84 |

same assay, conditions: post-emergence, 336 h, 140 g ai/ha, 14 days, read-out: Visual Growth Reduction (%) 14 Days After Application ECHCG

| Structure (SMILES) | pest or weed control at 140 g/ha [%] |
| --- | --- |
| Nc1c(F)c(-c2ccc3nsnc3c2)nc(C(=O)O)c1Cl [Compound 12] | 85 to 94 |

— patent US9006250B2, “4-amino-6-(heterocyclic)picolinates and 6-amino-2-(heterocyclic)pyrimidine-4-carboxylates and their use as herbicides” (Dow AgroSciences, LLC, priority 2013, dated 2015)
